# Test results: ChEMBL document CHEMBL3808308, “Synergistic potentiation of (-)-lomaiviticin A cytotoxicity by the ATR inhibitor VE-821” (Bioorg Med Chem Lett, 2016)
# Activity calls are given as the source filed them. The calls are words filed in the database; no cut-off is given here.
# Tests used:
# K562 [1] = test: Potentiation of 1.25 nM (-)-lomaiviticin A-induced cytotoxicity against human K562 cells assessed as fraction ratio affected at 0.25 uM after 48 hrs by cell titer-glo luminescence assay; assay type: functional
# K562 [2] = test: Potentiation of 2.5 nM (-)-lomaiviticin A-induced cytotoxicity against human K562 cells assessed as combination index at 0.5 uM after 48 hrs by cell titer-glo luminescence assay; assay type: functional
# K562 [3] = test: Potentiation of 0.125 nM (-)-lomaiviticin A-induced cytotoxicity against human K562 cells assessed as combination index at 0.025 uM after 48 hrs by cell titer-glo luminescence assay; assay type: functional
# K562 [4] = test: Potentiation of 7 nM (-)-lomaiviticin A-induced cytotoxicity against human K562 cells assessed as fraction ratio affected at 1.4 uM after 48 hrs by cell titer-glo luminescence assay; assay type: functional
# K562 [5] = test: Potentiation of 1.25 nM (-)-lomaiviticin A-induced cytotoxicity against human K562 cells assessed as combination index at 0.25 uM after 48 hrs by cell titer-glo luminescence assay; assay type: functional
# K562 [6] = test: Potentiation of (-)-lomaiviticin A-induced cytotoxicity against human K562 cells assessed as (-)-lomaiviticin A ED50 at compound to (-)-lomaiviticin A ratio of 200:1 after 48 hrs by cell titer-glo luminescence assay (reference value: 0.23776 nM); assay type: functional; conditions: K562, 48 h, read-out: ED50 (the source's name)
# K562 [7] = test: Potentiation of 0.25 nM (-)-lomaiviticin A-induced cytotoxicity against human K562 cells assessed as fraction ratio affected at 0.05 uM after 48 hrs by cell titer-glo luminescence assay; assay type: functional
# K562 [8] = test: Potentiation of 0.125 nM (-)-lomaiviticin A-induced cytotoxicity against human K562 cells assessed as fraction ratio affected at 0.025 uM after 48 hrs by cell titer-glo luminescence assay; assay type: functional
# K562 [9] = test: Potentiation of 0.025 nM (-)-lomaiviticin A-induced cytotoxicity against human K562 cells assessed as fraction ratio affected at 0.005 uM after 48 hrs by cell titer-glo luminescence assay; assay type: functional
# K562 [10] = test: Potentiation of 0.025 nM (-)-lomaiviticin A-induced cytotoxicity against human K562 cells assessed as combination index at 0.005 uM after 48 hrs by cell titer-glo luminescence assay; assay type: functional
# [11] = Cytotoxicity against human K562 cells assessed as decrease in cell viability after 48 hrs by cell titer-glo luminescence assay; assay type: cell-based; conditions: read-out: ED50
# K562 [12] = test: Potentiation of 0.25 nM (-)-lomaiviticin A-induced cytotoxicity against human K562 cells assessed as combination index at 0.05 uM after 48 hrs by cell titer-glo luminescence assay; assay type: functional
# K562 [13] = test: Potentiation of 2.5 nM (-)-lomaiviticin A-induced cytotoxicity against human K562 cells assessed as fraction ratio affected at 0.5 uM after 48 hrs by cell titer-glo luminescence assay; assay type: functional
# K562 [14] = test: Potentiation of 7 nM (-)-lomaiviticin A-induced cytotoxicity against human K562 cells assessed as combination index at 1.4 uM after 48 hrs by cell titer-glo luminescence assay; assay type: functional
# K562 [15] = test: Cytotoxicity against human K562 cells assessed as decrease in cell viability after 24 to 48 hrs by cell titer-glo luminescence assay; assay type: cell-based
# K562 [16] = test: Cytotoxicity against human K562 cells assessed as effect on cell viability at 0.05 to 0.5 nM after 24 to 48 hrs by cell titer-glo luminescence assay; assay type: functional
# K562 [17] = test: Cytotoxicity against human K562 cells assessed as decrease in cell viability at 1 nM after 48 hrs by cell titer-glo luminescence assay; assay type: functional
# U-251 [18] = test: Cytotoxicity against PTEN-deficient human U251 cells assessed as decrease in cell viability by clonogenic survival assay; assay type: functional; conditions: read-out: LC50 (the source's name)
# K562 [19] = test: Potentiation of 250 pM (-)-lomaiviticin A-induced cytotoxicity against human K562 cells assessed as decrease in cell viability at 10 uM after 48 hrs by cell titer-glo luminescence assay; assay type: functional, cell-based
# K562 [20] = test: Induction of apoptosis in human K562 cells assessed as gammaH2AX/53BP1 levels up to 250 pM after 48 hrs by DAPI staining based immunofluorescence microscopy; assay type: functional, cell-based
# [21] = Cytotoxicity against BRCA2-deficient chinese hamster VC8 cells assessed as decrease in cell viability by clonogenic survival assay; assay type: functional; conditions: Cricetulus griseus, V-C8; read-out: LC50 (the source's name)
# K562 [22] = test: Induction of DNA double-strand breaks in human K562 cells at 50 to 500 pM after 24 hrs by neutral comet assay; assay type: functional, cell-based
# U-251 [23] = test: Selectivity ratio of LC50 for human U251 cells expressing PTEN to LC50 for PTEN-deficient human U251 cells; assay type: functional
# [24] = Selectivity ratio of LC50 for chinese hamster VC8 cells expressing BRCA2 to LC50 for BRCA2-deficient chinese hamster VC8 cells; assay type: functional, Cricetulus griseus
structure (smiles),measurement,setting,value
Cn1c(=O)n(-c2ccc(C(C)(C)C#N)cc2)c2c3cc(-c4cnc5ccccc5c4)ccc3ncc21 [DACTOLISIB],Ratio,K562 [1],0.9514
same,CI,K562 [2],0.3901
same,CI,K562 [3],2.3513
same,Ratio,K562 [4],0.9929
same,CI,K562 [5],0.3514
same,EC50,K562 [6],20.2 nM
same,Ratio,K562 [7],0.6128
same,Ratio,K562 [8],0.4369
same,Ratio,K562 [9],0.2836
same,CI,K562 [10],8.288
same,CC50 at 48 h,[11],48.9 nM
same,CI,K562 [12],0.8101
same,Ratio,K562 [13],0.9739
same,CI,K562 [14],0.3291
same,Activity,K562 [15],Dose-dependent effect
CC[C@@]1(O[C@H]2C[C@H](OC)[C@@H](O)[C@H](C)O2)[C@H](O[C@H]2C[C@@H](O)[C@H](N(C)C)[C@@H](C)O2)c2c(c3c(=O)c4c(O)ccc(O)c4c(=O)c=3c2=[N+]=[N-])C(=O)[C@@H]1[C@H]1C(=O)c2c(c(=[N+]=[N-])c3c(=O)c4c(O)ccc(O)c4c(=O)c2=3)[C@@H](O[C@H]2C[C@@H](O)[C@H](N(C)C)[C@@H](C)O2)[C@@]1(CC)O[C@H]1C[C@H](OC)[C@@H](O)[C@H](C)O1,Activity,K562 [16],<5%
same,Activity,K562 [17],34%
same,CC50,U-251 [18],0.002 nM
same,Activity,K562 [19],Active
same,Activity,K562 [20],Active
same,CC50,[21],0.0015 nM
same,Activity,K562 [22],inactive
same,RatioLC50,U-251 [23],>11.6
same,RatioLC50,[24],>11.6
